T1: taurine transporter (TauT) (Homo sapiens, UniProt P31641)
T1 sequence (P31641 1-620): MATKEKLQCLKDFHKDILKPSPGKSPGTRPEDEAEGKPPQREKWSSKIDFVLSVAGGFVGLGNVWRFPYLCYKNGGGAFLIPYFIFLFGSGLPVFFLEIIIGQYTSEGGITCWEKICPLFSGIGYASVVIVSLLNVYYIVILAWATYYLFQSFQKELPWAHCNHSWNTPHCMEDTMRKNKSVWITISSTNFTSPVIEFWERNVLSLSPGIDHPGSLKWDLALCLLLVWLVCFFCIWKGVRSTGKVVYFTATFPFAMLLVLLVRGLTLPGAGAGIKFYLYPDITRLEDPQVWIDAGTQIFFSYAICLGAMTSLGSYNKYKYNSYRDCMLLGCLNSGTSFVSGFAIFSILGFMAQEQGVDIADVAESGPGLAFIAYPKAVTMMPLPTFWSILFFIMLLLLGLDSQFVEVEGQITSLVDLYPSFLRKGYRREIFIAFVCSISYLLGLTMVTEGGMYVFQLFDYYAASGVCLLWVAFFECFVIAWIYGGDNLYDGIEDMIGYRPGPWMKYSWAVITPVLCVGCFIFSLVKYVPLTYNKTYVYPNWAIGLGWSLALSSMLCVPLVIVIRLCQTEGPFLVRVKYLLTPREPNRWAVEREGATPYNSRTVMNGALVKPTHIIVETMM


Tests used:
[1] = target: T1, taurine transporter (TauT); assay: cryo-EM structure; format: cell-based
[2] = substrate: NCCS(=O)(=O)O; assay: cells, lysate or membranes; format: cell-based, Homo sapiens; settings: Na+ and Cl- central pocket

IC50 [1] [mM] | Molecule | Km [2] [µM]
1.3 | NCCCC(=O)O [GABA] | –
– | taurine transporter (TauT) (Homo sapiens; F58A) (protein) MATKEKLQCLKDFHKDILKPSPGKSPGTRPEDEAEGKPPQREKWSSKIDFVLSVAGGAVGLGNVWRFPYLCYKNGGGAFLIPYFIFLFGSGLPVFFLEIIIGQYTSEGGITCWEKICPLFSGIGYASVVIVSLLNVYYIVILAWATYYLFQSFQKELPWAHCNHSWNTPHCMEDTMRKNKSVWITISSTNFTSPVIEFWERNVLSLSPGIDHPGSLKWDLALCLLLVWLVCFFCIWKGVRSTGKVVYFTATFPFAMLLVLLVRGLTLPGAGAGIKFYLYPDITRLEDPQVWIDAGTQIFFSYAICLGAMTSLGSYNKYKYNSYRDCMLLGCLNSGTSFVSGFAIFSILGFMAQEQGVDIADVAESGPGLAFIAYPKAVTMMPLPTFWSILFFIMLLLLGLDSQFVEVEGQITSLVDLYPSFLRKGYRREIFIAFVCSISYLLGLTMVTEGGMYVFQLFDYYAASGVCLLWVAFFECFVIAWIYGGDNLYDGIEDMIGYRPGPWMKYSWAVITPVLCVGCFIFSLVKYVPLTYNKTYVYPNWAIGLGWSLALSSMLCVPLVIVIRLCQTEGPFLVRVKYLLTPREPNRWAVEREGATPYNSRTVMNGALVKPTHIIVETMM | 166.2

Reference: article PMC12227546 (Nature Communications, 2025)
